{"source": "paper PMC6406907", "about": "“A H2AX–CARP-1 Interaction Regulates Apoptosis Signaling Following DNA Damage” (Cancers, 2019)", "key": {"MDA-MB-468 cells": {"system": "MDA-MB-468 cells", "test": "MTT cell viability/growth inhibition, MDA-MB-468", "format": "cell-based, human", "conditions": "for cell viability: 10 μM, MDA-MB-468, MTT, mean of three independent experiments; for growth inhibition of EGFP-CARP-1 / EGFP-H2AX (1–35)-expressing cells: MDA-MB-468 sublines vs EGFP-expressing counterparts", "protocol": "(§1) Routine maintenance and culture of MDA-MB-468 (lacking estrogen receptor; ER and having mutant p53) human triple-negative breast cancer (TNBC) cells, human cervical cancer HeLa, human kidney cancer UOK 262, non-small-cell lung cancer H1975, and HCC827 cells was carried out essentially as described previously. Generation and characterization of MDA-MB-468 cells expressing reduced CARP-1 was described previously. The stable sublines were generated by transfecting the MDA-MB-468 and Hela cells with the pcDNA3 vector, pcDNA3-CARP-1 wild-type (WT)-myc-His clone 6.1.2, pcDNA3-CARP-1(Δ600–650)-myc-His, pcDNA3-EGFP, pcDNA3-EGFP-H2AX (1–35), or pcDNA3-EGFP-CARP-1 (636–650) plasmids, followed by selection in the presence of 800 μg/mL neomycin using described methods. The cell lysates from wild-type, untransfected cells, neomycin-resistant pools, or individual sublines were then subjected to MTT-based viability, confocal, immunoprecipitation (IP), and Western blot (WB) analyses as below.\n(§2) The cell growth inhibition was assessed using an MTT assay following the established protocols described by us previously.\n(§3) Here, we utilized human TNBC MDA-MB-468 and human cervical cancer HeLa cells to conduct an MTT-based dose-response analysis using Adriamycin and CFM compounds. […] Since Adriamycin, CFM-4, and CFM-4.16 have molecular masses of 543.3, 404.9, and 440.3, respectively, we chose to use an equimolar dose of each compound in the MTT assays. […] Prior reports established that phosphorylation of H2AX at serine 139 (γ-H2AX) is involved in DNA damage repair and apoptotic signaling by ATM/ATR and JNKs, respectively. Next, the MDA-MB-468, HeLa, and the kidney cancer UOK 262 cells were treated with a 10 μM dose of the CFM-4.16 or Adriamycin for various time periods. The cell lysates from the control, untreated, and treated cells were analyzed by WB for expression of CARP-1, phospho-JNK1/2, phospho-H2AX, and poly ADP ribose polymerase (PARP) proteins. […] The H2AX activation is also indicative of DNA damage and involves pro-apoptotic JNKs. Our data in Figure 1C and Figure S1B,C (Supplementary Materials) also show activation of JNKs; however, a robust JNK activation is co-incident with H2AX phosphorylation following treatments with Adriamycin or CFM-4.16.\nFigure 7 Disruption of H2AX interaction with CARP-1 results in enhanced viabilities of CFM-4-, CFM-4.16-, or Adriamycin-treated cells in part due to reduced apoptosis. (A,C,D) Indicated MDA-MB-468 cell lines were treated with DMSO (Control), or with the noted dose and time of Adriamycin, CFM-4, or CFM-4.16 compounds. Determination of viable/live cells was carried out by MTT assay as described in Section 2. (B,E,F) Cell lysates derived from vehicle DMSO (Control), or CFM-4-, CFM-4.16-, or Adriamycin-treated cells were added to the wells that had immobilized fluorogenic substrates of noted caspases. The fluorescence released from the activated caspase-dependent cleavage of respective substrate was detected by a plate reader at the excitation and emission wavelengths of 380 nm and 460 nm, respectively, as detailed in Section 2. The columns in bar charts in panels A, C, D and B, […] represent means of three and two independent experiments, respectively; bars, SE. For panels C and D, * p < 0.05, **p < 0.01 and *** p ≤ 0.001 relative to the respective EGFP vector subline. For panels E and F, *** p ≤ 0.05 relative to the respective EGFP vector subline.\nFigure 8 Ectopic expression of TAT-CARP-1 (636–650) peptide results in enhanced viabilities of Adriamycin-treated cells. MDA-MB-468 (A) or HeLa (B) cells were pre-incubated with 300 μg/mL indicated peptides for 72 h, followed by treatments with the noted dose and time of Adriamycin. Determination of viable/live cells was carried out using an MTT assay as described in Section 2. […]"}, "HeLa cells": {"system": "HeLa cells", "test": "MTT cell viability/growth inhibition, HeLa", "format": "cell-based, human", "conditions": "for cell viability: 10 μM, HeLa, mean of three independent experiments; for growth inhibition of EGFP-CARP-1 / EGFP-H2AX (1–35)-expressing cells: HeLa sublines vs EGFP-expressing counterparts", "protocol": "as §1, §2, §3\nFigure 8 Ectopic expression of TAT-CARP-1 (636–650) peptide results in enhanced viabilities of Adriamycin-treated cells. MDA-MB-468 (A) or HeLa (B) cells were pre-incubated with 300 μg/mL indicated peptides for 72 h, followed by treatments with the noted dose and time of Adriamycin. Determination of viable/live cells was carried out using an MTT assay as described in Section 2. The bar charts in panels A and B represent means of three and two independent experiments, respectively; bars, SE. (C) Indicated cells were either pre-incubated with 6 μg/mL indicated peptides for 72 h or not (Control), followed by treatments with Adriamycin as noted. Cells were then processed for immunofluorescence staining for TAT-CARP-1 peptide (red), γH2AX (green), and DAPI (blue) as detailed in Section 2 and Figure S3 (Supplementary Materials). Insets in C show enlarged areas of respective photomicrographs to indicate presence of TAT-CARP-1 peptide and γH2AX in respective columns. The insets in the top and middle rows of the merge column show co-localization of TAT-CARP-1 peptide, and γH2AX (magnification: 250×).\nFigure S7. Disruption of H2AX interaction with CARP-1 results in enhanced viabilities of CFM-4, CFM-4.16, or Adriamycin-treated cells in part due to reduced γH2AX and apoptosis. (A,B,C) Indicated HeLa cell lines were treated with DMSO (Control), noted dose and time of Adriamycin, CFM-4, or CFM-4.16 compounds. Determination of viable/live cells was carried out by MTT assay as in methods. The columns in bar charts in panels A, B, C represent means of three independent […]\nexperiments; bars, SE. […]"}}, "note": "No end group written: not given here. HA = not defined here", "data": [{"compound": "COc1cccc2c1C(=O)c1c(O)c3c(c(O)c1C2=O)C[C@@](O)(C(=O)CO)C[C@@H]3O[C@H]1C[C@H](N)[C@H](O)[C@H](C)O1", "note": "[Adriamycin, doxorubicin, reference compound]", "values": [{"measurement": "cell-growth inhibition", "setting": "MDA-MB-468 cells; 10 μM dose, MDA-MB-468, MTT dose-response, Figure S1A", "result": "robust cell-growth inhibition"}, {"measurement": "cell viability", "setting": "MDA-MB-468 cells", "result": "inhibited viabilities of both the cell lines in a time-dependent manner"}, {"measurement": "growth inhibition of CARP-1 (Δ600–650)-expressing cells", "setting": "MDA-MB-468 cells; MDA-MB-468 CARP-1 (Δ600–650) vs WT CARP-1-expressing counterparts, MTT, mean of three experiments", "result": "resistant to inhibition by CFM-4 or ADR"}, {"measurement": "growth inhibition of EGFP-CARP-1 / EGFP-H2AX (1–35)-expressing cells", "setting": "MDA-MB-468 cells; MTT, mean of three experiments", "result": "resistant to inhibition by CFM-4.16 or ADR"}, {"measurement": "cell viability", "setting": "HeLa cells", "result": "inhibited viabilities of both the cell lines in a time-dependent manner"}, {"measurement": "growth inhibition of CARP-1 (Δ600–650)-expressing cells", "setting": "HeLa cells; HeLa CARP-1 (Δ600–650) vs WT CARP-1-expressing counterparts, mean of three experiments", "result": "resistant to inhibition by CFM-4 or ADR"}, {"measurement": "growth inhibition of EGFP-CARP-1 / EGFP-H2AX (1–35)-expressing cells", "setting": "HeLa cells; mean of three experiments", "result": "resistant to inhibition by CFM-4.16 or ADR"}]}, {"compound": "O=C1N(Cc2ccccc2Cl)c2ccccc2C12NN=C(c1cccc(Cl)c1)S2", "note": "(stereo not drawn) [CFM-4.16]", "values": [{"measurement": "cell viability", "setting": "MDA-MB-468 cells", "result": "inhibited viabilities of both the cell lines in a time-dependent manner"}, {"measurement": "growth inhibition of EGFP-CARP-1 / EGFP-H2AX (1–35)-expressing cells", "setting": "MDA-MB-468 cells; MTT, mean of three experiments", "result": "resistant to inhibition by CFM-4.16 or ADR"}, {"measurement": "cell viability", "setting": "HeLa cells", "result": "inhibited viabilities of both the cell lines in a time-dependent manner"}, {"measurement": "growth inhibition of EGFP-CARP-1 / EGFP-H2AX (1–35)-expressing cells", "setting": "HeLa cells; mean of three experiments", "result": "resistant to inhibition by CFM-4.16 or ADR"}]}, {"compound": "EGFP-CARP-1 (636–650): EGFP-tagged fusion protein stably expressed in MDA-MB-468 and HeLa sublines (PKTMKVNDLRKELES; also: EGFP fusion kept, end not given here)", "values": [{"measurement": "growth inhibition of EGFP-CARP-1 / EGFP-H2AX (1–35)-expressing cells", "setting": "MDA-MB-468 cells; MTT, mean of three experiments", "result": "resistant to inhibition by CFM-4.16 or ADR"}, {"measurement": "growth inhibition of EGFP-CARP-1 / EGFP-H2AX (1–35)-expressing cells", "setting": "HeLa cells; mean of three experiments", "result": "resistant to inhibition by CFM-4.16 or ADR"}]}, {"compound": "EGFP-H2AX (1–35): EGFP-tagged fusion protein stably expressed in MDA-MB-468 and HeLa sublines (MSGRGKTGGKARAKAKSRSSRAGLQFPVGRVHRLL; also: EGFP fusion, end not given here; UniProt P16104 1-35, looked up, fragment)", "values": [{"measurement": "growth inhibition of EGFP-CARP-1 / EGFP-H2AX (1–35)-expressing cells", "setting": "MDA-MB-468 cells; MTT, mean of three experiments", "result": "resistant to inhibition by CFM-4.16 or ADR"}, {"measurement": "growth inhibition of EGFP-CARP-1 / EGFP-H2AX (1–35)-expressing cells", "setting": "HeLa cells; mean of three experiments", "result": "resistant to inhibition by CFM-4.16 or ADR"}]}, {"compound": "His-TAT-HA-CARP-1 (636–650): His-TAT-HA-tagged CARP-1 (636–650) peptide, >95% purity, commercially synthesized ({His-TAT-HA}-PKTMKVNDLRKELES; reading uncertain; UniProt Q8IX12 636-650, looked up, fragment)", "values": [{"measurement": "viability of Adriamycin-treated cells", "setting": "MDA-MB-468 cells; MDA-MB-468 pre-incubated with 300 μg/mL peptide, 72 h, then Adriamycin, vs EGFP, MTT, mean of three experiments", "result": "moderate, statistically significant increase in viabilities"}, {"measurement": "abrogation of Adriamycin-induced growth inhibition", "setting": "MDA-MB-468 cells; cancer cells, abstract", "result": "moderate, statistically significant abrogation of Adriamycin-induced growth inhibition"}, {"measurement": "viability of Adriamycin-treated cells", "setting": "HeLa cells; HeLa pre-incubated with 300 μg/mL peptide, 72 h, then Adriamycin, vs EGFP, mean of two experiments", "result": "moderate, statistically significant increase in viabilities"}]}]}
